Measured values published in US12377110B2, “Fospropofol methods and compositions” (Epalex Corporation, priority 2019, dated 2025).

Test: Linear regression of log fospropofol/propofol exposure (Cmax, AUC1, AUC2, AUC4) on time-to-treatment, migraine subjects vs healthy volunteers
Description: (§1) Values for healthy volunteers are shown on the left.
as §1
Values for healthy Volunteers are shown on the left.
as §1, §1, §1

SMILES: CC(C)c1cccc(C(C)C)c1O [propofol, 2,6-diisopropylphenol]
- p of inverse linear association between log of the ratio AUC1 propofol to AUC1 fospropofol and time-to-treatment (migraine subjects): 0.150
- p of inverse linear association between log of the ratio AUC2 propofol to AUC2 fospropofol and time-to-treatment (migraine subjects): 0.157
- p of difference in distribution of log of the ratio AUC1 propofol to AUC1 fospropofol between migraine subjects and healthy volunteers (migraine subjects vs healthy volunteers): 0.0367
